Several values for one entry are separate records, joined by “and”; a condition that tells them apart may be missing. Identical values can stand only once.
Test system: VA-ES-BJ tumor spheroid viability
Test: Anticancer human tumor VA-ES-BJ cell line growth inhibition;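 further: spheroids exposed to compounds for seven days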;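 on viability, T/C: percent of DMSO vehicle control viability so 100% = untreated growth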
Conditions: spheroids with HUVEC and MSC; for viability, T/C: stronger effect = lower value
Procedure, shortened: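 Complex tumor spheroids combined malignant cells with endothelial cells and mesenchymal stem cells. DNA-damaging drugs and DNA repair inhibitors were tested alone and in combination, at half-log dilutions down from clinical Cmax (top 10 microM if Cmax unknown), 0.25% DMSO final.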

What does the source list for CNCc1ccc(-c2cc(-c3nc(-c4ccc(S(=O)(=O)C(C)C)cc4)cnc3N)on2)cc1 + CC[C@@]1(O)C(=O)OCc2c1cc1n(c2=O)Cc2cc3c(CN(C)C)c(O)ccc3nc2-1?
IC50 (curve of first compound, second compound 0.003 µM): 258 nM; IC50 (curve of first compound, second compound 0.00949 µM): 139 nM; IC50 (curve of first compound, second compound 0.03 µM): < 9.49 nM; IC50 (curve of first compound, second compound 0.0949 µM): < 9.49 nM; IC50 (curve of first compound, second compound 0.3 µM): < 9.49 nM; viability, T/C (second compound 0.003 µM, first compound 0.00949 µM): 90.9%; viability, T/C (second compound 0.003 µM, first compound 0.03 µM): 83%; viability, T/C (second compound 0.003 µM, first compound 0.0949 µM): 71.7%; viability, T/C (second compound 0.003 µM, first compound 0.3 µM): 49.4%; viability, T/C (second compound 0.003 µM, first compound 0.949 µM): 15.1%; viability, T/C (second compound 0.003 µM, first compound 3 µM): 6.06%; viability, T/C (second compound 0.00949 µM, first compound 0.00949 µM): 86.5%; viability, T/C (second compound 0.00949 µM, first compound 0.03 µM): 81.1%; viability, T/C (second compound 0.00949 µM, first compound 0.0949 µM): 59%; viability, T/C (second compound 0.00949 µM, first compound 0.3 µM): 30.7%; viability, T/C (second compound 0.00949 µM, first compound 0.949 µM): 12.4%; viability, T/C (second compound 0.00949 µM, first compound 3 µM): 4.37%; viability, T/C (second compound 0.03 µM, first compound 0.00949 µM): 42.3%; viability, T/C (second compound 0.03 µM, first compound 0.03 µM): 42.3%; viability, T/C (second compound 0.03 µM, first compound 0.0949 µM): 38.1%; viability, T/C (second compound 0.03 µM, first compound 0.3 µM): 27.9%; viability, T/C (second compound 0.03 µM, first compound 0.949 µM): 9.05%; viability, T/C (second compound 0.03 µM, first compound 3 µM): 3.26%; viability, T/C (second compound 0.0949 µM, first compound 0.00949 µM): 8.5%; viability, T/C (second compound 0.0949 µM, first compound 0.03 µM): 10%; viability, T/C (second compound 0.0949 µM, first compound 0.0949 µM): 13.8%; viability, T/C (second compound 0.0949 µM, first compound 0.3 µM): 10.3%; viability, T/C (second compound 0.0949 µM, first compound 0.949 µM): 5.27%; viability, T/C (second compound 0.0949 µM, first compound 3 µM): 2.78%; viability, T/C (second compound 0.3 µM, first compound 0.00949 µM): 4.36%; viability, T/C (second compound 0.3 µM, first compound 0.03 µM): 5.51%; viability, T/C (second compound 0.3 µM, first compound 0.0949 µM): 5.44%; viability, T/C (second compound 0.3 µM, first compound 0.3 µM): 4.99%; viability, T/C (second compound 0.3 µM, first compound 0.949 µM): 4.31%; viability, T/C (second compound 0.3 µM, first compound 3 µM): 3.27%

For Cn1ncnc1[C@H]1c2n[nH]c(=O)c3cc(F)cc(c23)N[C@@H]1c1ccc(F)cc1, which viability, T/C (compound 0.00949 µM) is on record?
Its viability, T/C is 82.2% and 101% and 87.7%.

What about the viability, T/C (compound 0.03 µM) of the same compound?
The viability, T/C was 81.7% and 78.2% and 85.3%.

And the viability, T/C (compound 0.0949 µM)?
The viability, T/C was 68.5% and 82.6% and 74.7%.

What about the viability, T/C (compound 0.3 µM) of the same compound?
Its viability, T/C is 55.8% and 65.9% and 58.5%.

And the viability, T/C (compound 0.949 µM)?
Its viability, T/C is 33.7% and 41.4% and 36%.

What about the viability, T/C (compound 3 µM) of the same compound?
Its viability, T/C is 7.23% and 7.48% and 6.56%.

What about the IC50 (curve of compound) of the same compound?
The IC50 was 400 nM and 619 nM and 469 nM.

COc1ccc([C@@H](O)c2cc(-c3ncnc4cc(N5CCOCC5)ccc34)c(F)cc2Cl)nn1 + Cn1nnc2c(C(N)=O)ncn2c1=O was tested. Which IC50 (curve of first compound, second compound 1 µM) did it give?
The IC50 was 477 nM.

What about the IC50 (curve of first compound, second compound 3.16 µM) of the same compound?
Its IC50 is 574 nM.

What about the IC50 (curve of first compound, second compound 10 µM) of the same compound?
Its IC50 is 602 nM.

And the IC50 (curve of first compound, second compound 31.6 µM)?
Its IC50 is 623 nM.

What about the IC50 (curve of first compound, second compound 100 µM) of the same compound?
Its IC50 is 547 nM.

And the viability, T/C (second compound 1 µM, first compound 0.0316 µM)?
The viability, T/C was 94.9%.

What about the viability, T/C (second compound 1 µM, first compound 0.1 µM) of the same compound?
Its viability, T/C is 79.5%.

What about the viability, T/C (second compound 1 µM, first compound 0.316 µM) of the same compound?
Its viability, T/C is 56.8%.

And the viability, T/C (second compound 1 µM, first compound 1 µM)?
The viability, T/C was 37.9%.

And the viability, T/C (second compound 1 µM, first compound 3.16 µM)?
Its viability, T/C is 15.8%.

What about the viability, T/C (second compound 1 µM, first compound 10 µM) of the same compound?
The viability, T/C was 7.65%.

And the viability, T/C (second compound 3.16 µM, first compound 0.0316 µM)?
Its viability, T/C is 92.4%.

What about the viability, T/C (second compound 3.16 µM, first compound 0.1 µM) of the same compound?
Its viability, T/C is 89.6%.

What about the viability, T/C (second compound 3.16 µM, first compound 0.316 µM) of the same compound?
Its viability, T/C is 70%.

What about the viability, T/C (second compound 3.16 µM, first compound 1 µM) of the same compound?
The viability, T/C was 31%.

What about the viability, T/C (second compound 3.16 µM, first compound 3.16 µM) of the same compound?
The viability, T/C was 13.2%.

And the viability, T/C (second compound 3.16 µM, first compound 10 µM)?
Its viability, T/C is 7.49%.

What about the viability, T/C (second compound 10 µM, first compound 0.0316 µM) of the same compound?
The viability, T/C was 92.5%.

What about the viability, T/C (second compound 10 µM, first compound 0.1 µM) of the same compound?
The viability, T/C was 84.4%.

What about the viability, T/C (second compound 10 µM, first compound 0.316 µM) of the same compound?
Its viability, T/C is 63.5%.

And the viability, T/C (second compound 10 µM, first compound 1 µM)?
Its viability, T/C is 41.5%.

And the viability, T/C (second compound 10 µM, first compound 3.16 µM)?
The viability, T/C was 11.4%.

What about the viability, T/C (second compound 10 µM, first compound 10 µM) of the same compound?
Its viability, T/C is 7.61%.

And the viability, T/C (second compound 31.6 µM, first compound 0.0316 µM)?
The viability, T/C was 85.6%.

What about the viability, T/C (second compound 31.6 µM, first compound 0.1 µM) of the same compound?
Its viability, T/C is 83%.

What about the viability, T/C (second compound 31.6 µM, first compound 0.316 µM) of the same compound?
The viability, T/C was 65.8%.

And the viability, T/C (second compound 31.6 µM, first compound 1 µM)?
Its viability, T/C is 38.8%.

And the viability, T/C (second compound 31.6 µM, first compound 3.16 µM)?
The viability, T/C was 16.1%.

And the viability, T/C (second compound 31.6 µM, first compound 10 µM)?
The viability, T/C was 7.46%.

And the viability, T/C (second compound 100 µM, first compound 0.0316 µM)?
The viability, T/C was 96.2%.

What about the viability, T/C (second compound 100 µM, first compound 0.1 µM) of the same compound?
The viability, T/C was 98.1%.

And the viability, T/C (second compound 100 µM, first compound 0.316 µM)?
Its viability, T/C is 61.5%.

What about the viability, T/C (second compound 100 µM, first compound 1 µM) of the same compound?
Its viability, T/C is 35%.

What about the viability, T/C (second compound 100 µM, first compound 3.16 µM) of the same compound?
The viability, T/C was 13.9%.

What about the viability, T/C (second compound 100 µM, first compound 10 µM) of the same compound?
The viability, T/C was 8.08%.
